# Source: patent publication US12240857B2 (priority 2017, dated 2025)
# Read-outs that look alike come from different tables or passages of the source.
# What was measured:
# [1] = system: BDBV mucin-domain-deleted glycoprotein pseudotyped VSV; experiment: microbe, parasite or virus in culture; type: cell-based, Bundibugyo ebolavirus; conditions: Vesicular stomatitis virus, Vero, read-out: EC50 BDBV
# [2] = in vitro; conditions: African green monkey, CC50
# [3] = system: EBOV mucin-domain-deleted glycoprotein pseudotyped VSV; experiment: microbe, parasite or virus in culture; type: cell-based, Zaire ebolavirus; conditions: Zaire ebolavirus, Vero, read-out: EC50 EBOV
Compound,EC50 [1] [nM],CC50 [2] [nM],EC50 [3] [nM],EC50 ([1]; 24 h) [nM],EC50 ([3]; 24 h) [nM]
"CC1CCN(C[C@H](O)COCC23CC4CC(C2)CC(c2ccccc2)(C4)C3)CC1 [Example C10, (2S)-1-(4-methylpiperidin-1-yl)-3-[(3-phenyladamantan-1-yl)methoxy]propan-2-ol]",170,3600,190,,
"CC1CCN(C[C@@H](O)COCC23CC4CC(C2)CC(c2ccccc2)(C4)C3)CC1 [Example C11, (2R)-1-(4-methylpiperidin-1-yl)-3-[(3-phenyladamantan-1-yl)methoxy]propan-2-ol]",110,3600,180,,
"CC1CCN(C[C@H](O)COCCC23CC4CC(C2)CC(c2ccccc2)(C4)C3)CC1 [Example C12, (2S)-1-(4-methylpiperidin-1-yl)-3-[2-(3-phenyladamantan-1-yl)ethoxy]propan-2-ol]",190,1200,270,,
"CC1CCN(C[C@@H](O)COCCC23CC4CC(C2)CC(c2ccccc2)(C4)C3)CC1 [Example C13, (2R)-1-(4-methylpiperidin-1-yl)-3-[2-(3-phenyladamantan-1-yl)ethoxy]propan-2-ol]",110,3600,170,,
"O=C(NC1CCNCC1)c1ccc(NCC23CC4CC(C2)CC(c2ccccc2)(C4)C3)nc1 [Example C14, 6-{[(3-phenyladamantan-1-yl)methyl]amino}-N-(piperidin-4-yl)pyridine-3-carboxamide]",1000,3900,> 1000,,
"c1ccc(C23CC4CC(CC(CNc5ccc(CN6CCCCC6)cn5)(C4)C2)C3)cc1 [Example C15, N-[(3-phenyladamantan-1-yl)methyl]-5-(piperidin-1-ylmethyl)pyridin-2-amine]",980,3900,> 1000,,
"NCc1ccc(NCC23CC4CC(C2)CC(c2ccccc2)(C4)C3)nc1 [Example C16, 5-(aminomethyl)-N-[(3-phenyladamantan-1-yl)methyl]pyridin-2-amine]",750,8000,980,,
"CC1CCN(C[C@H](O)COc2ccc(C34CC5CC(CC(c6ccccc6)(C5)C3)C4)cc2)CC1 [Example C18, (2S)-1-(4-methylpiperidin-1-yl)-3-[4-(3-phenyladamantan-1-yl)phenoxy]propan-2-ol]",260,2700,80,,
"CCC12CC3CC(C1)CC(c1ccc(OC[C@@H](O)CN4CCC(C)CC4)cc1)(C3)C2 [Example C19, (S)-1-(4-(−3-ethyladamantan-1-yl)phenoxy)-3-(4-methylpiperidin-1-yl)propan-2-ol]",200,> 100000,110,,
Cc1ccc(C23CC4CC(CC(CN5CCCCC5)(C4)C2)C3)cc1 [Example D1],,> 10000,,610,1300
"COc1ccc(CNCCC23CC4CC(CC(C4)C2)C3)cc1 [Example D4, [2-(adamantan-1-yl)ethyl][(4-methoxyphenyl)methyl]amine]",,> 10000,,2720,2190
"CCOCCN1CCN(CC23CC4CC(CC(C4)C2)C3)CC1 [Example D5, 1-(adamantan-1-ylmethyl)-4-(2-ethoxyethyl)piperazine]",,> 10000,,1800,4600
"CC1CCN(CC(O)COCCC23CC4CC(CC(C4)C2)C3)CC1 (stereo not drawn) [Example D10, 1-[2-(adamantan-1-yl)ethoxy]-3-(4-methylpiperidin-1-yl) propan-2-ol]",,15500,,140,320
"CC1CCCCN1CC(O)COCCC12CC3CC(CC(C3)C1)C2 (stereo not drawn) [Example D11, 1-[2-(adamantan-1-yl)ethoxy]-3-(2-methylpiperidin-1-yl)propan-2-ol]",,7500,,190,440
"CCN(CC(O)COCCC12CC3CC(CC(C3)C1)C2)C1CCCCC1 (stereo not drawn) [Example D12, N-{3-[2-(adamantan-1-yl)ethoxy]-2-hydroxypropyl}-N-ethylcyclo hexanamine]",,> 3000,,490,610
"CC(C)(C)NCC(O)COCCC12CC3CC(CC(C3)C1)C2 (stereo not drawn) [Example D13, {3-[2-(adamantan-1-yl)ethoxy]-2-hydroxypropyl}(tert-butyl)amine]",,> 10000,,670,630
"OC(COCCC12CC3CC(CC(C3)C1)C2)CN1CCOCC1 (stereo not drawn) [Example D16, 1-[2-(adamantan-1-yl)ethoxy]-3-(morpholin-4-yl)propan-2-ol]",,> 10000,,3200,3800
"CC1CCN(C[C@H](O)COc2ccc(C34CC5CC(CC(C5)C3)C4)cc2)CC1 [Example D22, (2S)-1[4-(adamantan-1-yl)phenoxy]-3-(4-methylpiperidin-1-yl)propan-2-ol]",,8500,,85,52
"CC1CCN(C[C@@H](O)COc2ccc(C34CC5CC(CC(C5)C3)C4)cc2)CC1 [Example D23, (2R)-1-[4-(adamantan-1-yl)phenoxy]-3-(4-methylpiperidin-1-yl)propan-2-ol]",,3900,,77,60

Compound,EC50 [1] [nM],CC50 [2] [nM],EC50 [3] [nM],EC50 ([1]; 24 h) [nM],EC50 ([3]; 24 h) [nM]
"CCN1CCN(CC(O)COc2ccc(C34CC5CC(CC(C5)C3)C4)cc2)CC1 (stereo not drawn) [Example D25, 1-[4-(adamantan-1-yl)phenoxy]-3-(4-ethylpiperazin-1-yl)propan-2-ol]",,3100,,240,90
CN1CCN(C[C@H](O)COc2ccc(C34CC5CC(CC(C5)C3)C4)cc2)CC1 [Example D27],,3500,,190,130
"CN1CCN(CC(O)COc2ccc(C34CC5CC(CC(C5)C3)C4)cc2)CC1 (stereo not drawn) [Example D28, 1-[4-(adamantan-1-yl)phenoxy]-3-(4-methylpiperazin-1-yl)propan-2-ol]",,4200,,210,150
"NCCOc1ccc(C23CC4CC(CC(C4)C2)C3)cc1 [Example D34, 1-[4-(2-aminoethoxy)phenyl] adamantane]",,3700,,1160,430
"Nc1ccc(C23CC4CC(CC(C4)C2)C3)cc1 [Example D36, 4-(adamantan-1-yl)aniline]",,> 10000,,6200,4200
"CC12CC3CC(C)(C1)CC(c1ccc(OC[C@@H](O)CN4CCCCC4)cc1)(C3)C2 [Example D39, (2S)-1-[4-(3,5-dimethyladamantan-1-yl)phenoxy]-3-(piperidin-1-yl) propan-2-ol]",,3200,,250,120
"CC1CCN(C[C@H](O)COc2ccc(C34CC5CC(C)(CC(C)(C5)C3)C4)cc2)CC1 [Example D40, (2S)-1-[4-(3,5-dimethyladamantan-1-yl)phenoxy]-3-(4-methylpiperidin-1-yl)propan-2-ol]",,2500,,460,190
"O=C(NCCC12CC3CC(CC(C3)C1)C2)c1ccc(CN2CCOCC2)cc1 [Example D41, N-[2-(adamantan-1-yl)ethyl]-4-(morpholin-4-ylmethyl)benzamide]",,> 3000,,9700,2300
"CC(NC(=O)Cn1ccc(C(F)(F)F)n1)C12CC3CC(CC(C3)C1)C2 (stereo not drawn) [Example D44, N[1-(adamantan-1-yl)ethyl]-2-[3-(trifluoromethyl)-1H-pyrazol-1-yl] acetamide]",,> 10000,,2700,5800
"CC(NC(=O)NCC(C)(C)N1CCOCC1)C12CC3CC(CC(C3)C1)C2 (stereo not drawn) [Example D45, 1-[1-(adamantan-1-yl)ethyl]-3-[2-methyl-2-(morpholin-4-yl)propyl]urea]",,> 10000,,4600,6500
"CN(C)C1CCCN(C(=O)NCC23CC4CC(CC(C4)C2)C3)C1 (stereo not drawn) [Example D46, N-(adamantan-1-ylmethyl)-3-(dimethylamino)piperidine-1-carboxamide]",,> 10000,,4300,6700
"CC(NC(=O)Cn1nnc(-c2ccco2)n1)C12CC3CC(CC(C3)C1)C2 (stereo not drawn) [Example D47, N-[1-(adamantan-1-yl)ethyl]-2-[5-(furan-2-yl)-2H-1,2,3,4-tetrazol-2-yl]acetamide]",,> 10000,,5400,9300
"O=C(NC1CCNCC1)NC12CC3CC(C1)CC(c1ccccc1)(C3)C2 [Example E1, 3-(3-phenyladamantan-1-yl)-1-(piperidin-4-yl)urea]",770,18300,> 1000,,
"N[C@H]1CC[C@H](NC(=O)NC23CC4CC(C2)CC(c2ccccc2)(C4)C3)CC1 [Example E2, 1-(4-aminocyclohexyl)-3-(3-phenyladamantan-1-yl)urea]",610,12600,870,,
"O=C(NC12CC3CC(C1)CC(c1ccccc1)(C3)C2)C1CCNCC1 [Example E3, N-(3-phenyladamantan-1-yl)piperidine-4-carboxamide]",270,36300,> 1000,,
"O=C(CC1CCNCC1)NC12CC3CC(C1)CC(c1ccccc1)(C3)C2 [Example E4, N-(3-phenyladamantan-1-yl)-2-(piperidin-4-yl)acetamide]",790,23100,1080,,
"N[C@H]1CC[C@H](C(=O)NC23CC4CC(C2)CC(c2ccccc2)(C4)C3)CC1 [Example E5, trans-4-amino-N-(3-phenyladamantan-1-yl)cyclohexane-1-carboxamide]",230,13300,680,,
"O=C(NCC12CC3CC(C1)CC(c1ccccc1)(C3)C2)C1CCNCC1 [Example E6, N-[(3-phenyladamantan-1-yl)methyl]piperidine-4-carboxamide]",200,11900,710,,
